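Values below derive from 48-hour exposures of cells grown in 96-well plates, with endpoints linearly interpolated between the two concentrations bracketing the appropriate inhibition level. GI50: concentration for 50% inhibition of growth. Definition used: TGI = concentration required for complete inhibition of growth.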
Assays:
Assay in all cases: inhibition of tumour cell growth, NCI panel, 48 h
UACC-62 melanoma = tested on: UACC-62 melanoma
K-562 leukemia = tested on: K-562 leukemia
HS 578T breast = tested on: HS 578T breast
SNB-75 CNS = tested on: SNB-75 CNS
U251 CNS = tested on: U251 CNS
RXF 393 renal = tested on: RXF 393 renal
HOP-62 NSCLC = tested on: HOP-62 NSCLC
SK-MEL-2 melanoma = tested on: SK-MEL-2 melanoma
SF-539 CNS = tested on: SF-539 CNS
HCT-15 colon = tested on: HCT-15 colon

Compound: CSc1ccc(C2=NN(C(=O)c3ccc(N)cc3)C(c3ccc(F)cc3)C2)cc1 (centres undefined)
- GI50 (UACC-62 melanoma): 10.1 µM
- TGI (UACC-62 melanoma): 22.5 µM
- GI50 (K-562 leukemia): 3.69 µM
- TGI (K-562 leukemia): 11.2 µM
- GI50 (HS 578T breast): 21.4 µM
- TGI (HS 578T breast): 55.8 µM
- GI50 (SNB-75 CNS): 14.2 µM
- TGI (SNB-75 CNS): 28.1 µM
- GI50 (U251 CNS): 3.56 µM
- TGI (U251 CNS): 12.6 µM
- GI50 (RXF 393 renal): 17.7 µM
- TGI (RXF 393 renal): 34.1 µM
- GI50 (HOP-62 NSCLC): 16 µM
- TGI (HOP-62 NSCLC): 29.8 µM
- GI50 (SK-MEL-2 melanoma): 21.1 µM
- TGI (SK-MEL-2 melanoma): 39.9 µM
- GI50 (SF-539 CNS): 15.6 µM
- TGI (SF-539 CNS): 32.4 µM
- GI50 (HCT-15 colon): 3.28 µM
- TGI (HCT-15 colon): 14.4 µM

Compound: CS(=O)(=O)c1nc(Cl)c(Cl)c(C#N)c1Cl
- TGI (UACC-62 melanoma): 10.8 µM
- TGI (K-562 leukemia): 20.6 µM
- TGI (HS 578T breast): > 58.7 µM
- TGI (SNB-75 CNS): 26.9 µM
- TGI (U251 CNS): 11.7 µM
- TGI (RXF 393 renal): 3.07 µM
- TGI (HOP-62 NSCLC): 35.6 µM
- TGI (SK-MEL-2 melanoma): 14.5 µM
- TGI (SF-539 CNS): 11.3 µM
- TGI (HCT-15 colon): 3.5 µM

Compound: Cc1sc(/N=C2/NC(=O)CS2)nc1-c1nc(/N=C2/NC(=O)CS2)sc1C
- GI50 (UACC-62 melanoma): 15.9 µM
- TGI (UACC-62 melanoma): > 50 µM
- GI50 (K-562 leukemia): 26.8 µM
- TGI (K-562 leukemia): > 50 µM
- GI50 (HS 578T breast): 2.17 µM
- TGI (HS 578T breast): 36.3 µM
- GI50 (SNB-75 CNS): > 50 µM
- TGI (SNB-75 CNS): > 50 µM
- GI50 (U251 CNS): > 50 µM
- TGI (U251 CNS): > 50 µM
- GI50 (RXF 393 renal): > 50 µM
- TGI (RXF 393 renal): > 50 µM
- GI50 (HOP-62 NSCLC): 35.2 µM
- TGI (HOP-62 NSCLC): > 50 µM
- GI50 (SK-MEL-2 melanoma): > 50 µM
- TGI (SK-MEL-2 melanoma): > 50 µM
- GI50 (SF-539 CNS): > 50 µM
- TGI (SF-539 CNS): > 50 µM
- GI50 (HCT-15 colon): > 50 µM
- TGI (HCT-15 colon): > 50 µM

Compound: COC(=O)Nc1nc2ccc(Sc3ccccc3)cc2[nH]1
- GI50 (UACC-62 melanoma): 0.405 µM
- TGI (UACC-62 melanoma): 23.9 µM
- GI50 (K-562 leukemia): 0.0482 µM
- GI50 (HS 578T breast): 0.26 µM
- TGI (HS 578T breast): 11.2 µM
- GI50 (SNB-75 CNS): 0.195 µM
- TGI (SNB-75 CNS): 2.05 µM
- GI50 (U251 CNS): 0.168 µM
- TGI (U251 CNS): 4.37 µM
- GI50 (RXF 393 renal): 0.154 µM
- TGI (RXF 393 renal): 0.51 µM
- GI50 (HOP-62 NSCLC): 0.277 µM
- TGI (HOP-62 NSCLC): 4.23 µM
- GI50 (SK-MEL-2 melanoma): 0.162 µM
- TGI (SK-MEL-2 melanoma): 2.88 µM
- GI50 (SF-539 CNS): 0.234 µM
- TGI (SF-539 CNS): 0.933 µM
- GI50 (HCT-15 colon): 0.0825 µM
- TGI (HCT-15 colon): 23 µM

Compound: O=[N+]([O-])c1ccc(-c2ccccc2)c([As](=O)(O)O)c1
- GI50 (UACC-62 melanoma): 22.5 µM
- TGI (UACC-62 melanoma): > 100 µM
- GI50 (K-562 leukemia): 4.89 µM
- TGI (K-562 leukemia): > 100 µM
- GI50 (HS 578T breast): 0.798 µM
- TGI (HS 578T breast): 18.4 µM
- GI50 (SNB-75 CNS): 15.1 µM
- TGI (SNB-75 CNS): > 100 µM
- GI50 (U251 CNS): 3.08 µM
- TGI (U251 CNS): 23.9 µM
- GI50 (RXF 393 renal): 10.7 µM
- TGI (RXF 393 renal): 23.2 µM
- GI50 (HOP-62 NSCLC): 3.11 µM
- TGI (HOP-62 NSCLC): 18 µM
- GI50 (SK-MEL-2 melanoma): 28.2 µM
- TGI (SK-MEL-2 melanoma): 62.8 µM
- GI50 (SF-539 CNS): 13 µM
- TGI (SF-539 CNS): 44.6 µM
- GI50 (HCT-15 colon): 9.3 µM
- TGI (HCT-15 colon): 41.2 µM

From PubChem BioAssay (NCI)
